Entries after “also recorded” stand apart in the source; their conditions may differ. Read-outs that look alike come from different tables or passages of the source. Blank lines part the entries; values can stand above or below the molecule they belong to.
Columns and labels:
[1] = system: rat hind foot carragheenin-induced oedema; assay: Carragheenin-induced oedema test; type: in vivo; details: 3 h, read-out: percentage inhibition of the inflammation; for change in vivo at 25 mg/kg: 25 mg/kg oral; for change in vivo at 50 mg/kg: 50 mg/kg oral; for change in vivo at 100 mg/kg: 100 mg/kg oral
[2] = system: rat hind foot kaolin-induced arthritis; assay: Kaolin-induced arthritis test, second experiment, chronic phase (weight of the foot at the 12th hour); type: in vivo; details: po, 12 h, Table IXb; for change in vivo at 25 mg/kg / change in vivo at 50 mg/kg / change in vivo at 100 mg/kg: 12th hour, read-out: percentage significant decrease in the weight of the treated foot; for ED50: foot weight, read-out: 50% active dose
Protocol: The […] of 0.05 ml of a sterile 10% strength suspension of kaolin into the metatarsal flexor sheath of the hind foot of a rat initially induces an oedematous reaction. An inflammatory arthritis then forms.
The test products are administered orally (stomach tube) one hour before the injection of the kaolin.
In a second experiment, a more elaborate study was performed in order to ascertain the effect of the products, on the one hand on the acute phase of the inflammatory reaction (measured by the volume of the foot at the 8th hour), and on the other hand on the chronic phase (activity measured by the weight of the foot at the 12th hour).
As in the previous experiment, ketoprofen was used as the comparative product: […]

[3] = system: foreign-body (sponge) granuloma in rats; assay: Experimental granuloma induced by foreign body, histological study; type: in vivo, Wistar rats; details: for histological study of the granuloma (inflammatory connective / granulation tissue): second experiment, day 8, Table XIa; for histological study of the granuloma: 8 days, Table XI
prostacyclin synthetase = assay: PGI2 production in human glomeruli (renal preparation model); type: cell-based; details: arachidonic acid 5 ug/ml
Protocol: Human glomeruli synthesize both thromboxanes, via thromboxane synthetase, and prostaglandins, via prostacyclin synthetase. The experiment consists in stimulating glomerular cells with arachidonic acid (5 ug/ml) and in assaying radioimmunologically the amount of thromboxane B2 (TXB2) and prostacyclin (PGI2) produced in the presence of increasing concentrations of test products (10^-6 M to 5×10^-5 M).
As for the previous model, the results are expressed as IC50 in comparison with a control suspension.

thromboxane synthetase = assay: TXB2 production in human platelet suspension (thromboxane synthetase); type: cell-based; details: human platelets, arachidonic acid 5 μg/ml, 37° C., read-out: IC50, inhibition of the production of TXB2
Protocol: The platelets are incubated with arachidonic acid (5 μg/ml) in the presence of increasing doses of test products (10^-6l M to 5×10^-5 M). Platelets stimulated by arachidonic acid (AA) manufacture a large amount of thromboxane A2 (TXA2), which can be measured radioimmunologically in the form of a stable metabolite TXB2.
The assay of the amount of TXB2 in the medium is performed after a 1- to 15- minute incubation at 37° C., the measurements being made in comparison with a control suspension which has not been incubated with the test products.
Results: These are expressed as IC50, that is to say as the concentration of the test product which permits 50% inhibition of the production of TXB2.

[4] = system: foreign-body (sponge) granuloma in rats; assay: Experimental granuloma induced by foreign body, weight of the granulomas; type: in vivo, Wistar rats; details: Rattus norvegicus, po, 240 h, 10 days after implantation, Table XIb, read-out: decrease in the weight of the granulomas
Protocol: This test consists in studying the subacute cellular phase which is developed in the 8 days which follow the implantation of a foreign body, a sponge of non-resorbable plastic, in the dorsal subcutaneous connective tissue in rats.
The animals used are Wistar rats weighing 120-140 g and of the same origin, maintained under the same conditions of housing throughout the treatment (8 days).
The compounds of the invention are administered orally, in a gum suspension, in the morning in a fasted state, using an oesophageal tube.
In this experiment, on the one hand a histological study of the granulomas is performed by sampling on day 8 (results recorded in Table XIa), and on the other hand a study of the weight of the granulomas was performed 10 days after the implantation (results recorded in Table XIb).

[5] = system: pain threshold of brewer's yeast inflamed rat hind foot; assay: Randall and Sellitto's test (analgesic activity); type: in vivo; details: for change in vivo at 25 mg/kg: 25 mg/kg oral; for change in vivo at 25 mg/kg / change in vivo at 50 mg/kg / change in vivo at 100 mg/kg: read-out: percentage increase in the mean pain threshold; for change in vivo at 50 mg/kg: 50 mg/kg oral; for change in vivo at 100 mg/kg: 100 mg/kg oral; for ED50: po, analgesia, read-out: 50% active dose
Procedure, shortened: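 Rats had 0.1 ml 20% brewer's yeast suspension injected under the hind-foot plantar aponeurosis; compounds dosed orally by stomach tube 1 h before yeast. Pain threshold was the pressure eliciting foot withdrawal, read at the 4–6 h plateau; result is % increase in mean threshold versus untreated controls, 10 rats per group.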

IC50 (prostacyclin synthetase): > 50 µM
IC50 (thromboxane synthetase): 6.2 µM
SMILES: O=C(O)CCCCCCCCCCCNS(=O)(=O)c1ccc(Cl)c(C(=O)c2ccccc2)c1 [Compound 1736, 12-(3-benzoyl-4-chlorobenzenesulphonamido)dodecanoic acid]
change in vivo at 25 mg/kg ([1]; second experiment, Table Xa): -45%
change in vivo at 50 mg/kg ([1]; second experiment, Table Xa): -48%
change in vivo at 100 mg/kg ([1]; second experiment, Table Xa): -55%
change in vivo at 25 mg/kg [2]: -45 ± 5%
change in vivo at 50 mg/kg [2]: -55 ± 5%
change in vivo at 100 mg/kg [2]: -58 ± 5%
ED50 [2]: 50 mg/kg
histological study of the granuloma (inflammatory connective / granulation tissue) [3]: Very distinct slowing in the formation
change in vivo at 25 mg/kg [4]: -48%
change in vivo at 50 mg/kg [4]: -52%
change in vivo at 100 mg/kg [4]: -55%
change in vivo at 25 mg/kg ([5]; second experiment, Table XIIa): 52%
change in vivo at 50 mg/kg ([5]; second experiment, Table XIIa): 58%
change in vivo at 100 mg/kg ([5]; second experiment, Table XIIa): 60%
ED50 ([5]; second experiment, Table XIIa): 25 mg/kg

IC50 (prostacyclin synthetase): 50 µM
IC50 (thromboxane synthetase): 7.8 µM
SMILES: O=C(O)CCCCCCCCCCNS(=O)(=O)c1ccc(Cl)cc1C(O)c1ccccc1Cl (centres unmarked) [Compound 1796]
change in vivo at 25 mg/kg ([1]; second experiment, Table Xa): -45%
change in vivo at 50 mg/kg ([1]; second experiment, Table Xa): -48%
change in vivo at 100 mg/kg ([1]; second experiment, Table Xa): -55%
change in vivo at 25 mg/kg [2]: -50 ± 5%
change in vivo at 50 mg/kg [2]: -52 ± 5%
change in vivo at 100 mg/kg [2]: -58 ± 5%
ED50 [2]: 25 mg/kg
histological study of the granuloma (inflammatory connective / granulation tissue) [3]: only slightly inflammatory
change in vivo at 25 mg/kg [4]: -50%
change in vivo at 50 mg/kg [4]: -55%
change in vivo at 100 mg/kg [4]: -60%
change in vivo at 25 mg/kg ([5]; second experiment, Table XIIa): 50%
change in vivo at 50 mg/kg ([5]; second experiment, Table XIIa): 55%
change in vivo at 100 mg/kg ([5]; second experiment, Table XIIa): 58%
ED50 ([5]; second experiment, Table XIIa): 25 mg/kg

SMILES: O=C(O)CCCCCCCCCCNS(=O)(=O)c1ccc(Cl)cc1C(=O)c1ccccc1Cl [Compound 1574, 11-[2-(2-chlorobenzoyl)-4-chlorobenzenesulphonamido]undecanoic acid]
change in vivo at 25 mg/kg ([1]; second experiment, Table Xa): -40%
change in vivo at 50 mg/kg ([1]; second experiment, Table Xa): -43%
change in vivo at 100 mg/kg ([1]; second experiment, Table Xa): -45%
change in vivo at 25 mg/kg [2]: -58 ± 5%
change in vivo at 50 mg/kg [2]: -60 ± 5%
change in vivo at 100 mg/kg [2]: -60 ± 5%
ED50 [2]: 25 mg/kg
histological study of the granuloma (inflammatory connective / granulation tissue) [3]: very distinct rarefaction
IC50 (prostacyclin synthetase): 100 µM
IC50 (thromboxane synthetase): 8 µM
change in vivo at 25 mg/kg [4]: -48%
change in vivo at 50 mg/kg [4]: -50%
change in vivo at 100 mg/kg [4]: -55%
change in vivo at 25 mg/kg ([5]; second experiment, Table XIIa): 45%
change in vivo at 50 mg/kg ([5]; second experiment, Table XIIa): 50%
change in vivo at 100 mg/kg ([5]; second experiment, Table XIIa): 50%
ED50 ([5]; second experiment, Table XIIa): 50 mg/kg

SMILES: O=C(O)CCCCCCCCCCNS(=O)(=O)c1ccc(Cl)cc1C(=O)c1ccccc1 [Compound 1572, 11-(2-benzoyl-4-chlorobenzenesulphonamido)undecanoic acid]
change in vivo at 25 mg/kg ([1]; first experiment, Table X): -18%
change in vivo at 50 mg/kg ([1]; first experiment, Table X): -25%
change in vivo at 100 mg/kg ([1]; first experiment, Table X): -49%
histological study of the granuloma ([3]; 50 mg/kg oral): anti-inflammatory activity is exhibited
histological study of the granuloma ([3]; 100 mg/kg oral): distinct
IC50 (prostacyclin synthetase): 100 µM
IC50 (thromboxane synthetase): 12 µM
change in vivo at 25 mg/kg ([5]; first experiment, Table XII): 18%
change in vivo at 50 mg/kg ([5]; first experiment, Table XII): 30%
change in vivo at 100 mg/kg ([5]; first experiment, Table XII): 55%

IC50 (prostacyclin synthetase): > 50 µM
IC50 (thromboxane synthetase): 5 µM
SMILES: O=C(O)CCCCCCCCCCNS(=O)(=O)c1ccc(Cl)cc1Cc1ccccc1Cl [Compound 1797]
change in vivo at 25 mg/kg ([1]; second experiment, Table Xa): -45%
change in vivo at 50 mg/kg ([1]; second experiment, Table Xa): -48%
change in vivo at 100 mg/kg ([1]; second experiment, Table Xa): -55%
change in vivo at 25 mg/kg [2]: -50 ± 5%
change in vivo at 50 mg/kg [2]: -58 ± 5%
change in vivo at 100 mg/kg [2]: -60 ± 5%
ED50 [2]: 25 mg/kg
histological study of the granuloma (inflammatory connective / granulation tissue) [3]: Granuloma poorly developed; also recorded: slightly inflammatory
change in vivo at 25 mg/kg [4]: -50%
change in vivo at 50 mg/kg [4]: -55%
change in vivo at 100 mg/kg [4]: -60%
change in vivo at 25 mg/kg ([5]; second experiment, Table XIIa): 50%
change in vivo at 50 mg/kg ([5]; second experiment, Table XIIa): 55%
change in vivo at 100 mg/kg ([5]; second experiment, Table XIIa): 58%
